Measurements from patent US20050049240A1, “Tetrahydroisochinolines, their production and the use thereof as analgesics” (Bayer HealthCare AG, priority 2001, published 2005).

Molecular target: T1, human neurotensin-2 (NT-2) receptor (Homo sapiens, UniProt O95665)
T1 construct: expressed in transfected cells
Experiment: NT2 antagonism assay (intracellular calcium release in CHO or HEK 293 cells recombinantly expressing the receptor)
Format: cell-based
Conditions: functional in vitro assay; block of agonist (e.g. SR48692)-dependent intracellular calcium release; recombinant human NT-2 receptor
Source text: The activation of the human neurotensin-2 (NT-2) receptor by an agonist, for example SR48692, 2-{[1-(7-chloroquinolin-4-yl)-5-(2,6-dimethoxyphenyl)pyrazol-3-yl]carbonylamino}tricyclo[3.3.3.1 ^3,7]decane-2-carboxylic acid, leads, via stimulation of phospholipase C, to the release of calcium ions from intracellular stores. Antagonists block the activation of the receptor by the agonist and therefore also the agonist-dependent stimulation of phospholipase C and the intracellular calcium release initiated thereby.
A functional in vitro assay may be carried out with stable cell lines, for example CHO or HEK 293, which express the human NT-2 receptor recombinantly. The activity of the receptor is determined via measurement of the intracellular calcium release coupled thereto (in microtiter plates having 96, 384 and 1536 wells/plate). The concentration-dependent action of the NT-2 ligands tested on the receptor activity may be reported as IC50.

T1 sequence (O95665 whole entry): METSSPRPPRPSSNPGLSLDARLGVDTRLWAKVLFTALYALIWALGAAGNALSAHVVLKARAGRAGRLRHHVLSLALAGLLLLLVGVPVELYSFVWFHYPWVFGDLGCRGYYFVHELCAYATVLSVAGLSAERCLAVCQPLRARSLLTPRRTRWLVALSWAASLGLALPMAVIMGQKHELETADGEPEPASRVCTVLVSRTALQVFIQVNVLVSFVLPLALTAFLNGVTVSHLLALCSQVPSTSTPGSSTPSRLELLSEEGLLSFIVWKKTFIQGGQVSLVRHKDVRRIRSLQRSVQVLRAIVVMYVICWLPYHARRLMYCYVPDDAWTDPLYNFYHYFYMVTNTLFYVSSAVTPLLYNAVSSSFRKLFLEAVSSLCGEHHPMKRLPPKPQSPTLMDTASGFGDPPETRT

IC50: < 0.2 µM
SMILES: NC(=O)COc1ccccc1C1C(C(=O)NCc2cccnc2)c2ccccc2C(=O)N1CCC1=CCCCC1 (single isomer, unassigned) [enantiomer B of example 1, 3,4-trans-3-[2-(2-Carbamoylmethoxy)phenyl]-2-[2-(1-cyclohexen-1-yl)ethyl]-1-oxo-N-(3-pyridinylmethyl)-1,2,3,4-tetrahydro-4-isoquinolinecarboxamide]
